{"source": "patent US20060025458A1", "about": "“Alkylammonium compounds as antifungal and antitrypanosomal agents” (University of Connecticut, priority 2004, published 2006)", "key": {"P. falciparum": {"tested_on": "P. falciparum", "settings": "cited from earlier work"}, "[1]": {"tested_on": "promastigote form of L. major", "assay": "Growth inhibition of Leishmania major promastigotes", "type": "cell-based", "settings": "read-out: IC50 of choline analogs in Leishmania major, WT", "procedure": "For those drugs, IC50 values were determined."}, "[2]": {"tested_on": "S. cerevisiae wild type and knockouts of PtdCho biosynthesis genes", "assay": "Plate growth limiting dilution assay of yeast phospholipid mutants with G25", "type": "cell-based, Saccharomyces cerevisiae", "settings": "5 μM G25, plate assay", "procedure": "FIG. 9. Sensitivity to G25 of wild type and mutants affected in different steps of PtdCho biosynthesis. Plate growth limiting dilution assays were performed as described in Materials and Methods in the absence or the presence of 5 μM of G25. The strains and genes deleted in the strains used are described in “Material and Methods”.\nStrains and Growth Conditions: Wild-type (BY4741: Mata his3Δ1 leu2Δ0 met15Δ0 ura3Δ0) and mutant (hnm1Δ, psd1Δ, cki1Δ, pem1Δ, ept1Δ, cpt1Δ, eki1Δ, psd2Δ, pct1Δ, ect1Δ, pem2Δ) S. cerevisiae strains used in this study were purchased from Research Genetics (Invitrogen, USA). These strains were grown on YPD (1% yeast extract, 2% dextrose and 2% peptone) or synthetic complete medium (SD, 1.7% yeast nitrogen base, 5% ammonium sulfate and 2% dextrose). The Nigerian strain of P. falciparum was propagated in human red blood cells at 4% hematocrit by the method of Trager and Jensen (1976). Plate growth assays were performed by growing wild-type and mutant yeast strains in YPD to mid-log phase. Cultures were serially diluted 1:10 starting with a density of 3×10^7 cells/ml. The growth of cells was monitored by spotting 3 μl of each dilution onto solid medium in the absence or presence of 5 μM of G25.\nSensitivity of mutants affected in phospholipid metabolism to choline analogs. […] However, the steps in the phospholipid biosynthesis pathways that are specifically targeted by these compounds are not yet known. To assess whether the mode of action of G25 is linked to disruption of phospholipid metabolism, yeast was used as a surrogate system to compare the sensitivity to G25 of the wild-type strain and eleven individual knockouts in the CDP-choline, CDP-ethanolamine and CDP-DAG pathways. […] No resistance was conferred by loss of the PtdEtn methyltransferases, Pem1 and Pem2, or the enzymes of the CDP-ethanolamine pathway. Furthermore, unlike psd1[…] strain, loss of the Golgi/vacuole PtdSer decarboxylase, Psd2, which synthesizes 5% of the PtdEtn pool only, had no effect on G25 sensitivity."}, "[3]": {"target": "T1, recombinant PtdSer decarboxylase PfPsd1 (Plasmodium falciparum, UniProt Q9GPP8)", "T1 construct": "made in house", "T1 sequence (Q9GPP8 1-362)": "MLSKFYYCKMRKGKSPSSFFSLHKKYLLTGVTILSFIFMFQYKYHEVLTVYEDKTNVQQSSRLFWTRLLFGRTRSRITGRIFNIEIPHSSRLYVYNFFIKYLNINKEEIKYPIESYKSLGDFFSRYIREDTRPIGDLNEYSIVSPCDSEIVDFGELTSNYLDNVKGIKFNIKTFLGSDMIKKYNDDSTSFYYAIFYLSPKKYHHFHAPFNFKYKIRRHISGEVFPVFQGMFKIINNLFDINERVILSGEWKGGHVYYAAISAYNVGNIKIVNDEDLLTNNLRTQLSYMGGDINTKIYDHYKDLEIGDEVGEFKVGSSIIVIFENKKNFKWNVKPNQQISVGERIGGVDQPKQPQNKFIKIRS", "assay": "PtdSer decarboxylase assay with recombinant enzyme", "type": "biochemical", "settings": "increasing concentrations of G25", "procedure": "FIG. 11A. Effect of G25 on the activity of purified recombinant PfPsd1 enzyme. PfPsd1 activity was determined as described in Materials and Methods by measuring the amount of [^14C]-PtdEtn formed from PtdSer. TLC analysis of PfPsd1-mediated conversion of PtdSer into PtdEtn in the absence and presence of increasing concentrations of G25 was performed.\nFIG. 11B. Values are means±standard deviation of triplicate determination of two independent experiments.\nRecombinant P. falciparum PtdSer decarboxylase was purified as described by Baunaure and colleagues (Baunaure, et al., 2004) The assay mixture (0.3 ml) contained 0.1 M potassium phosphate buffer (pH 6.8), 0.06% Triton X-100 (w/v), 200 μM L-[dipalmitoyl]phosphatidyl[3-^14C]-serine (1.35 mCi/mmol; Amersham), and the enzyme fraction containing recombinant protein of P. falciparum (240 μg). After incubation at 37° C. for 1 hour, the reaction was terminated by the addition of 400 μl chloroform. Chloroform-soluble materials were extracted, dried, and then dissolved in chloroform/methanol (9:1, v/v). Phospholipids were separated by Thin Layer Chromatography as described above. The radioactive phospholipids were localized and identified using appropriate standards, and radioactivity was quantified using the phosphoimager analyzer (Molecular Dynamics).\nG25 inhibits the activity of recombinant P. falciparum PtdSer decarboxylase. […]"}}, "data": [{"compound": "C[N+]1(CCCCCCCCCCCCCCCC[N+]2(C)CCCC2)CCCC1.[Br-].[Br-]", "note": "[G25, 1,16-hexadecamethylenebis[N-methylpyrrolidinium]dibromide]", "values": [{"measurement": "IC50", "setting": "P. falciparum; in vitro, literature, read-out: IC50, P. falciparum", "value": 1.2, "unit": "nM"}, {"measurement": "IC90/IC50 ratios", "setting": "P. falciparum; multidrug resistant laboratory and clinical isolates", "value": "less than 3"}, {"measurement": "IC50", "setting": "[1]", "value": 8.1, "unit": "µM"}, {"measurement": "effect of loss of Psd2 on sensitivity", "setting": "[2]", "value": "no effect"}, {"measurement": "resistance conferred by loss of Cki1, Cpt1, Pct1 and Hnm1 (CDP-choline pathway)", "setting": "[2]", "value": "substantial resistance"}, {"measurement": "resistance conferred by loss of Pem1, Pem2 or CDP-ethanolamine pathway enzymes", "setting": "[2]", "value": "No resistance"}, {"measurement": "resistance of psd1 deletion strain", "setting": "[2]", "value": "highly resistant"}, {"measurement": "activity of recombinant PfPsd1", "setting": "[3]", "value": "steady decrease in the activity"}]}]}
